According to patent publication US20230310496A1, “COMPOSITIONS AND METHODS FOR PREVENTING AND/OR AM[…]-[…] AUTOIMMUNE DISEASES” (MiZ Company Limited, priority 2022, published 2023):
Read-outs that look alike come from different tables or passages of the source.

Columns and labels:
myasthenia gravis = assay: Course of myasthenia gravis under drugs before inhalation of hydrogen gas (Example 1); format: in vivo, human; conditions: Tacrolimus 3 mg/day, Mestinon 60 mg × 3/day
Procedure: The course from onset is as follows:
Aug. 26, 2021: upper lip paralysis occurred. […] Since the patient was positive on an ice pack test and a Tensilon test, they were diagnosed as myasthenia gravis. No abnormality was found in a CT test. As a result of a blood test, the patient was false positive to an anti-acetylcholine antibody and prescribed an immunosuppressant (Tacrolimus 3 mg/day). […] The patient could not read letters on a newspaper, raise a frying pan or write letters, and their chewing power reduced.
Sep. 9, 2021: the patient consulted the doctor because of worsening of symptoms and prescribed an anticholinesterase agent (Mestinon 60 mg × 3/day). […] Every day after 3 p.m. or later, the patient felt that their arms are unbearably heavy. Since the arms cannot be removed, the patient spent time with the arms kept on a table.
Sep. 25, 2021: since symptoms were not improved and merely got worse, the patient changed their primary doctor to a neuroimmunology specialist doctor and hospitalization was considered.
Sep. 29, 2021: an immunosuppressant (1 mg) was additionally prescribed by the neuroimmunology specialist doctor; that is, immunosuppressants (Tacrolimus 3 mg/day, Prograf 1 mg/day) were prescribed. The patient avoided hospitalization but was followed up as an outpatient. […] Based on the result, the patient was definitively diagnosed as anti-MuSK antibody positive myasthenia gravis. […]

[1] = system: anti-MuSK antibody positive myasthenia gravis; conditions: for relapse after use of the immunosuppressants was stopped: only hydrogen gas inhalation continued since Mar. 30, 2022, supplemental hydrogen water
Procedure: Patient: person at the time of onset. The course from onset is as follows:
Jan. […] (Kamakura city, Kanagawa prefecture, Japan).
Aug. 24, 2022: medical examination was carried out at the Department of Neurology in the Juntendo University Hospital.

Hashimoto's disease = conditions: MHG-2000α, hydrogen about 5% to 7%
[2] = human, in vivo

Structure (SMILES) | symptoms of myasthenia gravis under the drug (myasthenia gravis) | languor of the arm ([1]; Day 5 after initiation of inhalation, Jobs-α, hydrogen about 4% to 5%, Jan. 28, 2022) | constipation, a side effect of the immunosuppressants ([1]; Feb. 1, 2022, inhalation started Jan. 23, 2022) | blemishes on their face ([1]; Feb. 16, 2022) | symptoms of myasthenia gravis ([1]; Mar. 20, 2022) | body feeling when inhaling hydrogen gas ([1]; Mar. 22, 2022) | state of myasthenia gravis as told by the doctor ([1]; Oct. 19, 2022) | face turning red after drinking alcohol (side effect of the drugs) ([1]; after inhalation of hydrogen, Feb. 1, 2022) | number of red blood cells ([1]; blood test Mar. 9, 2022, under hydrogen inhalation, normal 3.8 to 5.04) | hematocrit ([1]; blood test Mar. 9, 2022, under hydrogen inhalation, normal 35.6 to 45.4) [%] | anti-MuSK antibody ([1]; medical examination Aug. 24, 2022) | relapse after use of the immunosuppressants was stopped [1] | relapse after use of the immunosuppressants was stopped ([1]; listed as hydrogen) | fatigue (Hashimoto's disease) | visual field (dark visual field) (Hashimoto's disease) | side effects of hydrogen itself [2]
CN(C)C(=O)Oc1ccc[n+](C)c1 [Mestinon] | their symptoms further got worse | – | – | – | – | – | – | – | – | – | – | – | – | – | – | –
C=CC[C@@H]1/C=C(\C)C[C@H](C)C[C@H](OC)[C@H]2O[C@@](O)(C(=O)C(=O)N3CCCC[C@H]3C(=O)O[C@H](/C(C)=C/[C@@H]3CC[C@@H](O)[C@H](OC)C3)[C@H](C)[C@@H](O)CC1=O)[C@H](C)C[C@@H]2OC [Tacrolimus] | the symptoms progressed | – | – | – | – | – | – | – | – | – | – | – | – | – | – | –
[HH] [hydrogen gas, hydrogen] | – | completely gone | overcome | became light | no longer observed | the body gets lighter | not in remission but in healed state | their face never turned red | 4.22 10^12/L | 40.7 | negative | no relapse occurred | no relapse has taken place | felt less fatigued | recovered from darkness and became bright | not found
